Key:
Staphylococcus carnosus = settings: before femB mutation; cited from earlier work
[1] = system: Staphylococcus carnosus femB mutant; settings: cited from earlier work
[2] = NMR CSP residual binding of SH3b mutant domains to P4 ligand; settings: 32 equivalents
[3] = NMR CSP residual binding of SH3b mutant domains to G5 ligand; settings: 32 equivalents

With “lysostaphin: bacteriolytic enzyme produced and secreted by Staphylococcus simulans biovar staphylolyticus” as the molecule, how does the MIC (Staphylococcus carnosus) read?
Its MIC is 0.01 µg/mL.

What about the “increase in the MIC values associated with femB mutation” value ([1]; femB mutant vs parent) of the same molecule?
Its value is 3000 fold.

What about the MIC ([1]; femB mutant) of the same molecule?
The MIC was 32 µg/mL.

B1: W489L: His-tagged lysostaphin SH3b domain with W489L substitution, for NMR (protein)
chain: SESASFTPNTDIITRTTGPFRSMPQSGVLKAGQTIHYDEVMKQDGHVWVGYTGNSGQRIYLPVRTWNKSTNTLGVLL
modifications: left off: His-tag, N-terminal, kept
With B1 as the molecule, how does the “residual binding (ratio of chemical shift changes of mutant to WT, averaged over all amino acids)” value [2] read?
Its value is 6.6%.

B2: N405A: His-tagged lysostaphin SH3b domain with N405A substitution, for NMR (protein)
chain: AKYGTLYKSESASFTPNTDIITRTTGPFRSMPQSGVLKAGQTIHYDEVMKQDGHVWVGYTGNSGQRIYLPVRTWNKS
modifications: left off: His-tag, N-terminal, kept
With B2 as the molecule, how does the “residual binding (ratio of chemical shift changes of mutant to WT, averaged over all amino acids)” value [3] read?
The value was 16%.

B3: R427M: His-tagged lysostaphin SH3b domain with R427M substitution, for NMR (protein)
chain: SESASFTPNTDIITMTTGPFRSMPQSGVLKAGQTIHYDEVMKQDGHVWVGYTGNSGQRIYLPVRTWNKS
modifications: left off: His-tag, N-terminal, kept
With B3 as the molecule, how does the “residual binding (ratio of chemical shift changes of mutant to WT, averaged over all amino acids)” value [2] read?
Its value is 1.6%.
